# Source: publication PMC6694155, “PTPσ inhibitors promote hematopoietic stem cell regeneration” (Nature Communications, 2019)
# Several values for one entry are separate records, joined by “and”; a condition that tells them apart may be missing. Equal values may be shown once.
# What was measured:
# [1] = tested on: BM KSL cells / BM lin− cells; experiment: Gene expression of cell cycle regulatory genes (qPCR); assay type: cell-based, mouse
# Procedure: Rac1 CDS-targeting- and Bcl2l1 CDS-targeting shRNA in lentiviral plasmid (TRCN0000310888 and TRCN0000004685) and control shRNA (SHC216V) were purchased from Sigma Aldrich. For viral production, 293T cells were transfected with lentiviral gag/pol and VSV-G (courtesy of Donald Kohn, UCLA) and the lentiviral plasmids, at a ratio of 2.2: 1.2: 3.3 (in [μg], gag/pol:VSVG:Plasmid) using Lipofectamine 3000 and P300 Enhancer. Viral particles were collected after 24 h and 48 h. One milliliter of viral supernatant was used to infect 0.75 × 10^6 BM lin^− cells. Infected cells were collected the next day and irradiated with 300 cGy followed by treatment with or without 1 μg/mL DJ001, prior to CFC assay.
# For all studies, RNA was isolated using the Qiagen RNeasy micro kit (Qiagen). RNA was reverse transcribed using the High-Capacity cDNA Reverse Transcription Kit (ThermoFisher Scientific) and was then used for quantitative PCR with SYBR Select Master Mix (Life Technologies). Values were normalized to housekeeping gene Gapdh/GAPDH and given as ΔΔCt values normalized to media-treated, non-irradiated BM KSL cells (2(−ΔΔC(T)) method)[67].
# C57BL/6 mice = experiment: 5FU chemotherapy model, hematologic recovery; assay type: in vivo, mouse
# Procedure: Ten-week-old female C57BL/6 mice received a single tail vein injection of 250 mg/kg 5FU in 100 μL PBS. Two hours post 5FU injection, mice were administered daily subcutaneous injections of 5 mg/kg (100 μg per mouse) DJ001 or vehicle in a volume of 100 μL for 8 days. DJ001 injections were prepared in PBS, 50% PEG-400, and 10% DMSO. Corresponding vehicle injections contained PBS, 50% PEG-400, and 10% DMSO. Retro-orbital blood was collected on day + 8, + 11, and + 14 after 5FU treatment with capillary pipettes (Fisher Scientific). Complete blood counts were measured using a Hemavet 950 instrument (Drew Scientific).
# [2] = tested on: BM cells from irradiated CD45.2+ mice in CD45.1+ recipient mice; experiment: HSC competitive repopulation assay; assay type: in vivo, mouse
# Procedure: Femurs and tibiae were collected from killed C57BL/6 or Ptprs^−/− mice and flushed with IMDM containing 10% FBS and 1% penicillin–streptomycin for BM cells. PB was collected through sub-mandibular puncture. Cells were filtered through a 40 μM strainer and then treated with ACK lysis buffer (Sigma Aldrich) before antibody staining for flow cytometry. For KSL and CD150^+CD48^−KSL cell analysis, BM cells were stained with allophycocyanin (APC)-and Cy7-conjugated anti-mouse Sca1 (BD Biosciences, #560654, 1:100), phycoerythrin (PE)-conjugated anti-mouse c-kit (BD Biosciences, #553355, 1:100), V450 lineage cocktail (BD Biosciences, 561301, 1:10), Alexa Fluor 488-conjugated anti-mouse CD48 (BioLegend, #103414, 1:100), and Alexa Fluor 647-conjugated anti-mouse CD150 (Biolegend, #115918, 1:100) antibodies. […]
# CFC assays (colony-forming unit-granulocyte monocyte), burst-forming unit-erythroid, and CFU-GEMM were performed using MethoCult GF M3434 (Stemcell Technologies)[6]. […] Multilineage donor hematopoietic cell engraftment was measured in the PB by flow cytometry.
# [3] = KSL cells, 36 h following 300 cGy, normalized to Gapdh and media
# [4] = day +8 following 250 mg/kg 5FU, 5 mg/kg DJ001 SQ daily
# [5] = day +11 following 250 mg/kg 5FU, 5 mg/kg DJ001 SQ daily
# [6] = day +14 following 250 mg/kg 5FU, 5 mg/kg DJ001 SQ daily
smiles,measurement,setting,value
"O=C(/C=C\Nc1cccc([N+](=O)[O-])c1)c1ccccc1 [DJ001, (Z)-3-((3-nitrophenyl)amino)-1-phenylprop-2-en-1-one]",DJ001-mediated transcription of Cdk2 and Cyclin E with Rac1-shRNA,[1]; BM KSL cells transduced with Rac1-shRNA,blocked DJ001-mediated transcription of Cdk2 and Cyclin E
same,Fold changes (2^−ΔΔCt) of Cyclin E expression (Figure 4c right panel),"[1]; BM lin− cells, 48 h after 300 cGy, shCtrl",1.96 and 1.7 and 1.9
same,Fold changes (2^−ΔΔCt) of Cdk2 expression (Figure 4c left panel),"[1]; BM lin− cells, 48 h after 300 cGy, shRac1",0.56 and 0.39 and 0.71 and 0.44
same,Fold changes (2^−ΔΔCt) of Cdk2 expression,[1]; [3],1.9 and 2.08 and 1.8
same,Fold changes (2^−ΔΔCt) of Cdk4 expression,[1]; [3],1.32 and 1.05 and 1
same,Fold changes (2^−ΔΔCt) of Cdk6 expression,[1]; [3],1.09 and 0.91 and 0.98
same,Fold changes (2^−ΔΔCt) of Cdkn1A expression,[1]; [3],1.43 and 1.41 and 1.14
same,Fold changes (2^−ΔΔCt) of Cdkn1B expression,[1]; [3],1.11 and 1.07 and 0.74
same,Fold changes (2^−ΔΔCt) of Cyclin D1 expression,[1]; [3],1.54 and 1.21 and 0.97
same,Fold changes (2^−ΔΔCt) of Cyclin D2 expression,[1]; [3],1.04 and 1.14 and 0.74
same,Fold changes (2^−ΔΔCt) of Cyclin E expression,[1]; [3],2.54 and 2.89 and 2.07
same,"expression of Cdk4, Cdk6, Cdkn1a, Cdkn1b, Cyclin D1, Cyclin D2",[1]; irradiated BM KSL cells,did not alter the expression
same,expression of Cdk2 and Cyclin E,[1]; irradiated KSL cells,significantly increased the expression
same,PB NEU counts per mouse (Figure 2i right panel),C57BL/6 mice; day 0 (pre-5FU),0.64 and 0.92 and 0.54 and 0.52
same,PB WBCs per mouse (Figure 2i left panel),C57BL/6 mice; day 0 (pre-5FU),7.24 and 8.98 and 6.9 and 7.26
same,PB NEU counts per mouse (Figure 2i right panel),C57BL/6 mice; [4],0.01 (2×) and 0.02 (4×) and 0.03
same,PB WBCs per mouse (Figure 2i left panel),C57BL/6 mice; [4],0.88 and 0.82 and 0.9 and 1 and 0.86 and 0.8 and 1.44
same,PB NEU counts per mouse (Figure 2i right panel),C57BL/6 mice; [5],0.08 and 0.14 and 0.11 and 0.12 and 0.07 (2×) and 0.54
same,PB WBCs per mouse (Figure 2i left panel),C57BL/6 mice; [5],0.78 and 3.32 and 1.78 and 2.76 and 1.44 and 3.6 and 2.12
same,PB WBCs and neutrophils vs 5FU control,C57BL/6 mice; day +14,significantly increased PB WBCs and neutrophils
same,PB NEU counts per mouse (Figure 2i right panel),C57BL/6 mice; [6],4.15 and 1.27 and 0.57 and 0.4 and 0.82 and 1.88 and 2.76
same,PB WBCs per mouse (Figure 2i left panel),C57BL/6 mice; [6],13.36 and 5.12 and 4.72 and 9.58 and 8.92 and 11.92 and 17.98
same,"percentages of donor myeloid cells, B cells and T cells in PB vs control",[2]; 20 weeks post transplant,significantly increased percentages
same,donor hematopoietic reconstitution over time compared with controls,"[2]; donors: 750 cGy, 5 mg/kg DJ001 daily, BM at day +10",significantly increased donor hematopoietic reconstitution
